Each structure is given as a SMILES string. pIC50: −log10 of the molar value.

This test deals with CK2A1 (CK2α/β) (Homo sapiens, UniProt P68400). As to the kind of experiment: CK2 kinase assay, CK2A1 (CK2α/β). The test is classed as biochemical. The note with it: Table A; read-out: CK2A1 (CK2α/β) (IC50).
Sequence of CK2A1 (CK2α/β) (P68400 whole entry, species assumed): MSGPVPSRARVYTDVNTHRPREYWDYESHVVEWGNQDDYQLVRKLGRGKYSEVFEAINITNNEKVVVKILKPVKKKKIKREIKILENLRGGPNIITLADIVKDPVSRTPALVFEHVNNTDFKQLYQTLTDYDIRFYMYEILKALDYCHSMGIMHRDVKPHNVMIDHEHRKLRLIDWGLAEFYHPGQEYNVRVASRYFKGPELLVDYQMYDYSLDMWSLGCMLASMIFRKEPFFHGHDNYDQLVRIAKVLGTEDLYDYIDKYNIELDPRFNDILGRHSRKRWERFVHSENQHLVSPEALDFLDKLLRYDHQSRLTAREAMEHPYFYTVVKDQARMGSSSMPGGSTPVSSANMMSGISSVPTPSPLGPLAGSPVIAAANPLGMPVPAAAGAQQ
Sequence of CK2A1 (CK2α/β) (P67870 whole entry partner, species assumed): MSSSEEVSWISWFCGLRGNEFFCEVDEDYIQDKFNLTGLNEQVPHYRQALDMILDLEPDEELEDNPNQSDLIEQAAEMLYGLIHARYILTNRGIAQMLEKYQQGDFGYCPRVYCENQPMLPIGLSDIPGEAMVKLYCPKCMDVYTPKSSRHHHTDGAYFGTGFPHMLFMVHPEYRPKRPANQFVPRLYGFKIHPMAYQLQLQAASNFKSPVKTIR
Turning to `N#Cc1cc(Nc2nc(NC3CC3)c3ncc(C#N)n3n2)c(Cl)c(N2CCN([C@H]3CCC[C@@H]3O)CC2)c1` [Example 589, 2-[(2-chloro-5-cyano-3-{4-[(1S,2S)-2-hydroxycyclopentyl]piperazin-1-yl}phenyl)amino]-4-(cyclopropylamino)imidazo [2,1-f][1,2,4]triazine-7-carbonitrile], the pIC50 was 8.12.
Take `N#Cc1cc(Nc2nc(NC3CC3)c3ncc(C#N)n3n2)c(Cl)c(N2CCN(CCO)CC2)c1` [Example 590, 2-({2-chloro-5-cyano-3-[4-(2-hydroxyethyl)piperazin-1-yl]phenyl}amino)-4-(cyclopropylamino)imidazo [2,1-f][1,2,4]triazine-7-carbonitrile]: the pIC50 is 8.74.
As to `COC(=O)N1CCC(N2CCN(c3cc(C#N)cc(Nc4nc(NC5CC5)c5ncc(C#N)n5n4)c3Cl)CC2)C1` (stereo not shown) [Example 591, methyl 3-[4-(2-chloro-5-cyano-3-{[7-cyano-4-(cyclopropylamino)imidazo [2,1-f][1,2,4]triazine-2-yl]amino}phenyl)piperazin-1-yl]pyrrolidine-1-carboxylate], the pIC50 was 8.42.
Regarding `CN1CC(OC(=O)N2CCN(c3cc(C#N)cc(Nc4nc(NC5CC5)c5ncc(C#N)n5n4)c3Cl)CC2)C1` [Example 592, 1-methylazetidin-3-yl 4-(2-chloro-5-cyano-3-{[7-cyano-4-(cyclopropylamino)imidazo [2,1-f][1,2,4]triazin-2-yl]amino}phenyl) piperazine-1-carboxylate], the pIC50 is 9.36.
Next, `N#Cc1cc(Nc2nc(NC3CC3)c3ncc(C#N)n3n2)c(Cl)c(N2CCN(C3CC3)CC2)c1` [Example 593, 2-{[2-chloro-5-cyano-3-(4-cyclopropylpiperazin-1-yl)phenyl]amino}-4-(cyclopropylamino)imidazo [2,1-f][1,2,4]triazine-7-carbonitrile]: 8.87; `N#Cc1cc(Nc2nc(NC3CC3)c3ncc(C#N)n3n2)c(Cl)c(N2CCN(CCC(F)F)CC2)c1` [Example 595, 2-({2-chloro-5-cyano-3-[4-(3,3-difluoropropyl)piperazin-1-yl]phenyl}amino)-4-(cyclopropylamino)imidazo [2,1-f][1,2,4]triazine-7-carbonitrile]: 8.84; `COC(C)CN1CCN(c2cc(C#N)cc(Nc3nc(NC4CC4)c4ncc(C#N)n4n3)c2Cl)CC1` (stereo not shown) [Example 596, 2-({2-chloro-5-cyano-3-[4-(2-methoxypropyl)piperazin-1-yl]phenyl}amino)-4-(cyclopropylamino)imidazo [2,1-f][1,2,4]triazine-7-carbonitrile]: 9.22.
`N#Cc1cc(Nc2nc(NC3CC3)c3ncc(C#N)n3n2)c(Cl)c(N2CCN(CC3CNCCO3)CC2)c1` (stereo not shown) [Example 597, 2-({2-chloro-5-cyano-3-[4-(morpholin-2-ylmethyl)piperazin-1-yl]phenyl}amino)-4-(cyclopropylamino)imidazo [2,1-f][1,2,4]triazine-7-carbonitrile]: the pIC50 was 9.21.
Regarding `N#Cc1cc(Nc2nc(NC3CC3)c3ncc(C#N)n3n2)c(Cl)c(N2CCN(CC3COCCN3)CC2)c1` (stereo not shown) [Example 598, 2-({2-chloro-5-cyano-3-[4-(morpholin-3-ylmethyl)piperazin-1-yl]phenyl}amino)-4-(cyclopropylamino)imidazo [2,1-f][1,2,4]triazine-7-carbonitrile], the pIC50 was 9.29.
`N#Cc1cc(Nc2nc(NC3CC3)c3ncc(C#N)n3n2)c(Cl)c(N2CCN(CC(=O)NS(=O)(=O)C3CC3)CC2)c1` [Example 599, 2-[4-(2-chloro-5-cyano-3-{[7-cyano-4-(cyclopropylamino)imidazo [2,1-f][1,2,4]triazin-2-yl]amino}phenyl)piperazin-1-yl]-N-(cyclopropanesulfonyl) acetamide]: the pIC50 is 9.40.
Consider `N#Cc1cc(Nc2nc(NC3CC3)c3ncc(C#N)n3n2)c(Cl)c(N2CCN(CC(N)=O)CC2)c1` [Example 600, 2-[4-(2-chloro-5-cyano-3-{[7-cyano-4-(cyclopropylamino)imidazo[2,1-f][1,2,4]triazin-2-yl]amino}phenyl)piperazin-1-yl]acetamide], for which the pIC50 was 9.28.
For the compound `N#Cc1cc(Nc2nc(NC3CC3)c3ncc(C#N)n3n2)c(Cl)c(N2CCN([C@H]3C[C@H](F)C3)CC2)c1` [Example 601, 2-[(2-chloro-5-cyano-3-{4-[(1r,3r)-3-fluorocyclobutyl]piperazin-1-yl}phenyl)amino]-4-(cyclopropylamino)imidazo [2,1-f][1,2,4]triazine-7-carbonitrile], the pIC50 was 8.85.
For `COC[C@@H](O)CN1CCN(c2cc(C#N)cc(Nc3nc(NC4CC4)c4ncc(C#N)n4n3)c2Cl)CC1` [Example 602, 2-[(2-chloro-5-cyano-3-{4-[(2S)-2-hydroxy-3-methoxypropyl]piperazin-1-yl}phenyl)amino]-4-(cyclopropylamino)imidazo [2,1-f][1,2,4]triazine-7-carbonitrile], the pIC50 was 8.36.
In the case of `CCNc1nc(Nc2cc(C#N)cc(N3CCN(CC4(C)COC4)CC3)c2Cl)nn2c(C#N)cnc12` [Example 603, 2-[(2-chloro-5-cyano-3-{4-[(3-methyloxetan-3-yl)methyl]piperazin-1-yl}phenyl)amino]-4-(ethylamino)imidazo[2,1-f] [1,2,4]triazine-7-carbonitrile], the pIC50 is 8.55.
For `CCNc1nc(Nc2cc(C#N)cc(N3CCN(CC(C)(CO)CO)CC3)c2Cl)nn2c(C#N)cnc12` [Example 604, 2-[(2-chloro-5-cyano-3-{4-[3-hydroxy-2-(hydroxymethyl)-2-methylpropyl]piperazin-1-yl}phenyl)amino]-4-(ethylamino)imidazo[2,1-f][1,2,4]triazine-7-carbonitrile], the pIC50 was 9.00.
With `CCNc1nc(Nc2cc(C#N)cc(N3CCN(C4CN(C(C)=O)C4)CC3)c2Cl)nn2c(C#N)cnc12` [Example 605, 2-({3-[4-(1-acetylazetidin-3-yl)piperazin-1-yl]-2-chloro-5-cyanophenyl}amino)-4-(ethylamino)imidazo[2,1-f][1,2,4]triazine-7-carbonitrile], the pIC50 is 9.04.
Take `COC[C@H](O)CN1CCN(c2cc(C#N)cc(Nc3nc(NC4CC4)c4ncc(C#N)n4n3)c2Cl)CC1` [Example 606, 2-[(2-chloro-5-cyano-3-{4-[(2R)-2-hydroxy-3-methoxypropyl]piperazin-1-yl}phenyl)amino]-4-(cyclopropylamino)imidazo [2,1-f][1,2,4]triazine-7-carbonitrile]: the pIC50 is 9.14.
For the compound `CS(=O)(=O)NC(=O)CN1CCN(c2cc(C#N)cc(Nc3nc(NC4CC4)c4ncc(C#N)n4n3)c2Cl)CC1` [Example 607, 2-[4-(2-chloro-5-cyano-3-{[7-cyano-4-(cyclopropylamino)imidazo [2,1-f][1,2,4]triazin-2-yl]amino}phenyl)piperazin-1-yl]-N-methanesulfonamide-acetamide], the pIC50 was 9.25.
With `CC(CO)N1CC(N2CCN(c3cc(C#N)cc(Nc4nc(NC5CC5)c5ncc(C#N)n5n4)c3Cl)CC2)C1` (stereo not shown) [Example 608, 2-[(2-chloro-5-cyano-3-{4-[1-(1-hydroxypropan-2-yl)azetidin-3-yl]piperazin-1-yl}phenyl)amino]-4-(cyclopropylamino)imidazo [2,1-f][1,2,4]triazine-7-carbonitrile], the pIC50 is 8.83.
